According to patent US20250084087A1, “BICYCLIC HETEROCYCLES AS MRGPRX2 ANTAGONISTS” (Incyte Corporation, priority 2023, published 2025):

Columns and labels:
[1] = target: T1, MRGPRX2 (Homo sapiens, UniProt Q96LB1); experiment: MRGPRX2 β-Arrestin recruitment assay (PathHunter); format: cell-based; design: host or cells: CHO-K1 (PathHunter); details: PathHunter CHO-K1 MRGPRX2 β-Arrestin cell line; agonist Cortistatin 14 0.25 μM
T1 sequence (Q96LB1 1-330): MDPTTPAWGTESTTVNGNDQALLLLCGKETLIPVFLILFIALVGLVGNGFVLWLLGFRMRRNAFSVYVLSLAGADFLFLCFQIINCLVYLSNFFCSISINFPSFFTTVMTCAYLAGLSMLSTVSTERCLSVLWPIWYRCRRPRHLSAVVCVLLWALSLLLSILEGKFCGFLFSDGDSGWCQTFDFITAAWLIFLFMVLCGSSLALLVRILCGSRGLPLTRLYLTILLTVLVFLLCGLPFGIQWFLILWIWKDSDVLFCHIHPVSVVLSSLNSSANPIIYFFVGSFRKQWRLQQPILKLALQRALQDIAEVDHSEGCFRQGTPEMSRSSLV
Source text: Example C: MRGPRX2 P-Arrestin Assay
This assay measures compound inhibition of P-Arrestin recruitment, which is part of the G protein-independent pathway that results from the ligand-activated GPCR phosphorylation by specific GPCR kinases. The PathHunter CHO-K1 MRPGRX2 B-Arrestin Cell line stably expressing ProLink tagged MRGPRX2 and Enzyme Acceptor Tagged B-Arrestin was purchased from Eurofins DiscoverX, (Fremont, CA).
The cells were maintained in culture medium from the Europhins DiscoverX Cell Culture Kit-107 which includes FBS, hygromycin B and G418. For the assay, the cells were harvested and were resuspended with Cell Plating Reagent 2 (Eurofins DiscoverX). Cells were added 10000 cells in 25 μL/well to a 384-well black cell culture plate (Greiner VWR, Radnor, PA) which contained 125 nL/well of compound at a selected serially diluted concentration range or DMSO. The plate was incubated at 37° C. with 5% CO2 for 1 h. 2 μL/well of agonist Cortistatin 14 was diluted in Protein Dilution Buffer, (Eurofins DiscoverX) for a final concentration of 0.25 μM, was added and the plate was incubated at 37° C. with 5% CO2 for 90 min. 14 μL/well of Detection Reagent Mix (PathHunter Detection Kit, Eurofins DiscoverX) was added to the plates and further incubated for 1 h in the dark. Plates were read on the PHERAstar microplate reader (BMG Labtech Cary, NC) measuring luminescence 0.1 to 1 second per well. Data was normalized using DMSO only wells and wells with high concentration of reference antagonist as controls. Compound IC50 curves were globally fitted with 3- or 4-parameter Hill equation in a Genedata Screener (Genedata Basel, Switzerland).

[2] = target: T1, MRGPRX2; experiment: MRGPRX2 IP1 HTRF assay; format: cell-based; design: host or cells: CHO-K1; details: CHO-K1 cells stably expressing human MRGPRX2; IP1 accumulation; agonist Cortistatin 14 1 μM
Source text: Example B: MRGPRX2 IP1 HTRF Assay
This assay measures compound inhibition of myo-Inositol 1 phosphate (IP1) accumulation in CHO-K1 cells. Chinese hamster ovary (CHO-K1) cells stably expressing human MRGPRX2 were purchased from GenScript (Piscataway, NJ).
For the HTRF IP1 determination, an IP-One GqKit (Perkin Elmer Cisbio, Waltham, MA), which includes all reagents and buffers in this protocol, was used. The cells were maintained in culture medium (Ham's F-12K) containing 10% (v/v) FBS, and 200 μg/mL Zeocin. For the assay, the cells were harvested and resuspended in culture medium with 2% FBS and without Zeocin, then were passed through a 40 μm filter. Cells were added at 20000 cells in a 5 μL/well to a 384-well white small volume cell culture plate (Greiner VWR, Radnor, PA) which contained 50 nL/well of test compound serially diluted at a selected concentration range in DMSO. 5 μL/well of prepared 2× Stimulation Buffer2 was then added to plates and was incubated at 37° C. with 5% CO2 for 1 h. 5 μL/well of agonist Cortistatin 14 (Bio-TechneR&D Systems, Minneapolis, MN) in 1× Stimulation Buffer2, for a 1 μM final concentration, was then added to plates and incubated at 37° C. with 5% CO2 for 1 h. 6 μL/well of 1:20 diluted Detection Reagent Mix (d2 and Cryptate) was added to the plates and incubated for 1 h in the dark. Plates were read on the PHERAstar microplate reader (BMG Labtech Cary, NC) to determine the HTRF ratio of the acceptor and donor emission signals. The IP1 concentrations were calculated from a standard curve following the IP-One GQ kit instructions. Wells with DMSO only and wells with high concentration of reference antagonist were used as controls for normalization. Compound IC50 curves were globally fitted with 3- or 4-parameter Hill equation in a Genedata Screener (Genedata Basel, Switzerland).

Compound	IC50 [1] [nM]	IC50 [2] [nM]
CC(C)(O)[C@H]1CC[C@H](NC(=O)N2CC(CNc3cc(C(F)(F)F)nc4cc(C(F)(F)F)nn34)(c3ccc(F)cc3)C2)CC1 [Example 55, 3-(((2,5-Bis(trifluoromethyl)pyrazolo[1,5-a]pyrimidin-7-yl)amino)methyl)-3-(4-fluorophenyl)-N-((1r,4r)-4-(2-hydroxypropan-2-yl)cyclohexyl)azetidine-1-carboxamide]	0.1 to 100	0.1 to 100
N#CC12CC(NC(=O)N3CC(CNc4cc(C(F)(F)F)nc5cc(C(F)(F)F)nn45)(c4cc(F)cc(F)c4)C3)(C1)C2 [Example 65, 3-(((2,5-Bis(trifluoromethyl)pyrazolo[1,5-a]pyrimidin-7-yl)amino)methyl)-N-(3-cyanobicyclo[1.1.1]pentan-1-yl-3-3,5-difluorophenyl)azetidine-1-carboxamide]	0.1 to 100	0.1 to 100
CCc1cc(NCC2(c3ccc(F)cc3)CN(C(=O)NCC(F)(F)F)C2)n2nc(C(F)(F)F)cc2n1 [Example 71, 3-(((5-Ethyl-2-(trifluoromethyl)pyrazolo[1,5-a]pyrimidin-7-yl)amino)methyl)-3-(4-fluorophenyl)-N-(2,2,2-trifluoroethyl)azetidine-1-carboxamide]	0.1 to 100	0.1 to 100
CC(C)(O)CNC1CC(CNc2cc(C(F)(F)F)nc3cc(C(F)(F)F)nn23)(c2ccc(F)cc2)C1 (stereo not shown) [Example 73, 1-((3-(((2,5-Bis(trifluoromethyl)pyrazolo[1,5-a]pyrimidin-7-yl)amino)methyl)-3-(4-fluorophenyl)cyclobutyl)amino)-2-methylpropan-2-ol]	0.1 to 100	0.1 to 100
Cn1ccc(N2CC(CNc3cc(C(F)(F)F)nc4cc(C(F)(F)F)nn34)(c3ccc(F)cc3)C2)nc1=O [Example 90, 4-(3-(((2,5-Bis(trifluoromethyl)pyrazolo[1,5-a]pyrimidin-7-yl)amino)methyl)-3-(4-fluorophenyl)azetidin-1-yl)-1-methylpyrimidin-2(1H)-one]	0.1 to 100	0.1 to 100
C[C@]1(O)C[C@H](NC(=O)N2CC(CNc3cc(C(F)(F)F)nc4cc(C(F)(F)F)nn34)(c3ccc(F)cc3)C2)C1 [Example 91, 3-(((2,5-Bis(trifluoromethyl)pyrazolo[1,5-a]pyrimidin-7-yl)amino)methyl)-3-(4-fluorophenyl)-N-((1r,3r)-3-hydroxy-3-methylcyclobutyl)azetidine-1-carboxamide]	0.1 to 100	0.1 to 100
O=C(N[C@H]1CC[C@H](O)CC1)N1CC(CNc2cc(C(F)(F)F)nc3cc(C(F)(F)F)nn23)(c2ccc(F)cn2)C1 [Example 99, 3-(((2,5-Bis(trifluoromethyl)pyrazolo[1,5-a]pyrimidin-7-yl)amino)methyl)-3-(5-fluoropyridin-2-yl)-N-((1r,4r)-4-hydroxycyclohexyl)azetidine-1-carboxamide]	0.1 to 100	0.1 to 100
O=C(N[C@H]1CC[C@H](O)CC1)N1CC(CNc2cc(C(F)(F)F)nc3cc(C(F)(F)F)nn23)(c2ccc(F)c(F)c2)C1 [Example 100, 3-(((2,5-Bis(trifluoromethyl)pyrazolo[1,5-a]pyrimidin-7-yl)amino)methyl)-3-(3,4-difluorophenyl)-N-((1r,4r)-4-hydroxycyclohexyl)azetidine-1-carboxamide]	0.1 to 100	0.1 to 100
[2H]C([2H])([2H])NC(=O)N1CC(CNc2cccc3nc(C(F)(F)F)cn23)(c2ccc(F)cc2)C1 [Example 101, 3-(4-Fluorophenyl)-N-(methyl-d3)-3-(((2-(trifluoromethyl)imidazo[1,2-a]pyridin-5-yl)amino)methyl)azetidine-1-carboxamide]	0.1 to 100	0.1 to 100

More lines, now with the values ahead:

IC50 [1] [nM]	IC50 [2] [nM]	Compound
0.1 to 100	0.1 to 100	O=C(N[C@@H]1CC[C@@H](O)C1)N1CC(CNc2cc(C(F)(F)F)nc3cc(C(F)(F)F)nn23)(c2ccc(F)cc2)C1 [Example 53, 3-(((2,5-Bis(trifluoromethyl)pyrazolo[1,5-a]pyrimidin-7-yl)amino)methyl)-3-(4-fluorophenyl)-N-((1R,3R)-3-hydroxycyclopentyl)azetidine-1-carboxamide]
0.1 to 100	0.1 to 100	O=C(N[C@H]1CC[C@](O)(C(F)(F)F)CC1)N1CC(CNc2cc(C(F)(F)F)nc3cc(C(F)(F)F)nn23)(c2ccc(F)cc2)C1 [Example 54, 3-(((2,5-Bis(trifluoromethyl)pyrazolo[1,5-a]pyrimidin-7-yl)amino)methyl)-3-(4-fluorophenyl)-N-((1s,4s)-4-hydroxy-4-(trifluoromethyl)cyclohexyl)azetidine-1-carboxamide]
0.1 to 100	0.1 to 100	O=C(N[C@@H]1CC[C@@H](O)C1)N1CCC(CNc2cc(C(F)(F)F)nc3cc(C(F)(F)F)nn23)(c2ccc(F)cc2)CC1 [Example 56, 4-(((2,5-Bis(trifluoromethyl)pyrazolo[1,5-a]pyrimidin-7-yl)amino)methyl)-4-(4-fluorophenyl)-N-((1R,3R)-3-hydroxycyclopentyl)piperidine-1-carboxamide]
0.1 to 100	0.1 to 100	O=C(N[C@H]1CC[C@H](O)CC1)N1CC(CNc2cc(C3CC3)nc3cc(C(F)(F)F)nn23)(c2ccc(F)cc2)C1 [Example 69, 3-(((5-Cyclopropyl-2-(trifluoromethyl)pyrazolo[1,5-a]pyrimidin-7-yl)amino)methyl)-3-(4-fluorophenyl)-N-((1r,4r)-4-hydroxycyclohexyl)azetidine-1-carboxamide]
0.1 to 100	0.1 to 100	CC(C)(O)CNC1CCC(CNc2cc(C(F)(F)F)nc3cc(C(F)(F)F)nn23)(c2ccc(F)cc2)CC1 (stereo not shown) [Example 74, 1-((4-(((2,5-Bis(trifluoromethyl)pyrazolo[1,5-a]pyrimidin-7-yl)amino)methyl)-4-(4-fluorophenyl)cyclohexyl)amino)-2-methylpropan-2-ol]
0.1 to 100	0.1 to 100	O=C(NC[C@H]1C[C@H](O)C1)N1CC(CNc2cc(C(F)(F)F)nc3cc(C(F)(F)F)nn23)(c2ccc(F)cc2)C1 [Example 92, 3-(((2,5-Bis(trifluoromethyl)pyrazolo[1,5-a]pyrimidin-7-yl)amino)methyl)-3-(4-fluorophenyl)-N-(((1r,3r)-3-hydroxycyclobutyl)methyl)azetidine-1-carboxamide]
0.1 to 100	0.1 to 100	O=C(N[C@H]1CC[C@@H]1O)N1CC(CNc2cc(C(F)(F)F)nc3cc(C(F)(F)F)nn23)(c2ccc(F)cc2)C1 [Example 93, 3-(((2,5-Bis(trifluoromethyl)pyrazolo[1,5-a]pyrimidin-7-yl)amino)methyl)-3-(4-fluorophenyl)-N-((1S,2S)-2-hydroxycyclobutyl)azetidine-1-carboxamide]
0.1 to 100	0.1 to 100	O=C(N[C@H]1CC[C@H](O)CC1)N1CC(CNc2cc(C(F)(F)F)nc3cc(C(F)F)nn23)(c2ccc(F)cc2)C1 [Example 98, 3-(((2-(Difluoromethyl)-5-(trifluoromethyl)pyrazolo[1,5-a]pyrimidin-7-yl)amino)methyl)-3-(4-fluorophenyl)-N-((1r,4r)-4-hydroxycyclohexyl)azetidine-1-carboxamide]
